From US20110098177A1, “METHODS AND COMPOSITIONS OF PLANT MICRONUTRIENTS” (NOVUS INTERNATIONAL INC., priority 2006, published 2011)
Like-named read-outs stand apart in the source and are kept apart here.

Experiments:
Tygress tomato plants = assay type: in vivo; settings: for Toxicity (0-10): 0=no injury, 10=plant death
In short: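 Greenhouse 'Tygress' tomatoes in micronutrient-deficient medium received foliar micronutrient treatments at 6 weeks after transplanting, 200 mL/plant in deionized water with non-ionic surfactant. Foliar injury rated visually 0 (none) to 10 (plant death); randomized complete block, 6 replications, LSD at 5%.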

[1] = system: soybean plants (Asgrow 1102); assay: Visual greenness ratings (1-5 scale) of soybean plants, open-field (Examples 11-12); assay type: in vivo; settings: for Greenness of soybean plants compared to control, statement: Foxhome site, 29 July rating
Experimental: The following experiments were performed on soybean plants growing in open-field plots during the summer and fall of 2008 at two production fields in West Central Minnesota. […] Trial design was a randomized complete block with 4 replications. Each plot measured 10' by 30' and consisted of five 22'' rows. Although all five rows of each plot were treated, only the center three rows (25' in length) of each plot were machine harvested. The two fields selected for these studies had historical Iron Deficiency Chlorosis (IDC) issues. The two field sites were planted by farmers with elite Roundup Ready commodity type soybean varieties with IDC tolerance (Asgrow 1102, Monsanto Corp.). […] BIOX-M was applied at a rate of 1.12 kg Mn/ha. […] All V4 treatments were applied in 10 gallons per acre of water with a backpack sprayer with a hand boom designed to “band” apply product directly to the plant row. Three nozzles with ConeJet TXVS-2 tips were oriented on either side and over the top of each row. This maximized the applied product to the plant tissue itself and minimized application of product to the soil surface. […] The V6 treatments (where applicable) were applied in 20 gallons per acre of water to increase the suspension of the BIOX products.

CSCCC(O)C(=O)[O-].CSCCC(O)C(=O)[O-].[Cu+2] (centres unmarked) [BIOX-Cu, Cu-HMTBA]
Toxicity compared to non-treated control plants, statement (Tygress tomato plants; BIOX-Cu at 0.46 and 0.55 lb/acre, Cu-sulfate at 0.8 lb/acre, BIOX-EDC at 0.4 lb/acre): increased levels of toxicity | Toxicity (0-10) (Tygress tomato plants; Cu 0.14 lb/acre): 0 | Toxicity (0-10) (Tygress tomato plants; Cu 0.28 lb/acre): 1 | Toxicity (0-10) (Tygress tomato plants; Cu 0.46 lb/acre): 5 | Toxicity (0-10) (Tygress tomato plants; Cu 0.55 lb/acre): 6 | Toxicity, statement (Tygress tomato plants; the two low levels of BIOX-Cu (0.14 and 0.28 lb/acre)): no toxic effects

CSCCC(O)C(=O)[O-].CSCCC(O)C(=O)[O-].[Mn+2] (centres unmarked) [BIOX-M, Mn-HMTBA]
Mean visual greenness scores (1-5) ([1]; 7.0 kg/ha, V4, Jul. 15, 2008 Rating, Foxhome): 2.5 | Mean visual greenness scores (1-5) ([1]; 7.0 kg/ha, V4, Jul. 15, 2008 Rating, Renville): 2.9 | Mean visual greenness scores (1-5) ([1]; 7.0 kg/ha, V4, Jul. 29, 2008 Rating, Foxhome): 1.0 C | Mean visual greenness scores (1-5) ([1]; 7.0 kg/ha, V4, Jul. 29, 2008 Rating, Renville): 1.3 | Greenness of soybean plants compared to control, statement ([1]; BIOX-M 1.12 kg Mn/ha): small but significant increase in greenness

Fe-HMTBA [BIOX-Fe]
Mean visual greenness scores (1-5) ([1]; 0.558 kg/ha, V4, V6, Jul. 15, 2008 Rating, Foxhome): 2.4 | Mean visual greenness scores (1-5) ([1]; 0.558 kg/ha, V4, V6, Jul. 15, 2008 Rating, Renville): 2.4 | Mean visual greenness scores (1-5) ([1]; 0.558 kg/ha, V4, V6, Jul. 29, 2008 Rating, Foxhome): 1.0 C | Mean visual greenness scores (1-5) ([1]; 0.558 kg/ha, V4, V6, Jul. 29, 2008 Rating, Renville): 1.1 | Mean visual greenness scores (1-5) ([1]; 0.558 kg/ha, V4, Jul. 15, 2008 Rating, Foxhome): 2.8 | Mean visual greenness scores (1-5) ([1]; 0.558 kg/ha, V4, Jul. 15, 2008 Rating, Renville): 2.6 | Mean visual greenness scores (1-5) ([1]; 0.558 kg/ha, V4, Jul. 29, 2008 Rating, Foxhome): 1.4 B, C | Mean visual greenness scores (1-5) ([1]; 0.558 kg/ha, V4, Jul. 29, 2008 Rating, Renville): 1.1 | Mean visual greenness scores (1-5) ([1]; 1.12 kg/ha, V4, V6, Jul. 15, 2008 Rating, Foxhome): 2.6 | Mean visual greenness scores (1-5) ([1]; 1.12 kg/ha, V4, V6, Jul. 15, 2008 Rating, Renville): 2.6 | Mean visual greenness scores (1-5) ([1]; 1.12 kg/ha, V4, V6, Jul. 29, 2008 Rating, Foxhome): 1.5 A, B, C | Mean visual greenness scores (1-5) ([1]; 1.12 kg/ha, V4, V6, Jul. 29, 2008 Rating, Renville): 1.4 | Mean visual greenness scores (1-5) ([1]; 1.12 kg/ha, V4, Jul. 15, 2008 Rating, Foxhome): 2.5 | Mean visual greenness scores (1-5) ([1]; 1.12 kg/ha, V4, Jul. 15, 2008 Rating, Renville): 2.1 | Mean visual greenness scores (1-5) ([1]; 1.12 kg/ha, V4, Jul. 29, 2008 Rating, Foxhome): 1.0 C | Mean visual greenness scores (1-5) ([1]; 1.12 kg/ha, V4, Jul. 29, 2008 Rating, Renville): 1.0 | Greenness of soybean plants compared to control, statement ([1]; higher rate (269 g Fe/ha) at V4 only): significantly increased the greenness in treated plants | Greenness of soybean plants compared to control, statement ([1]; higher rate (269 g Fe/ha) at both V4 and V6): no change in greenness compared to control | Toxic effects on soybean plants (in words) ([1]; iron concentrations 0.094% - 0.376% by weight): without toxic effects | Greenness of soybean plants compared to control, statement ([1]; lower rate (134 g Fe/ha) at V4): had no effect on greenness | Greenness of soybean plants compared to control, statement ([1]; lower rate (134 g Fe/ha) at both V4 and V6): significantly increased the greenness of the soybean plants | Toxicity (0-10) (Tygress tomato plants; Fe 0.28 lb/acre): 0 | Toxicity (0-10) (Tygress tomato plants; Fe 0.57 lb/acre): 0 | Toxicity (0-10) (Tygress tomato plants; Fe 1.12 lb/acre): 1 | Toxicity (0-10) (Tygress tomato plants; Fe 1.74 lb/acre): 1 | Toxicity (0-10) (Tygress tomato plants; Fe 2.3 lb/acre): 2 | Toxicity relative to the non-treated control, statement (Tygress tomato plants; all levels of BIOX-Fe, Fe-sulfate at 2.0 lb/acre, BIOX-EDF at 0.3 lb/acre): no increased toxicity relative to the non-treated control
